What is called inhibition is how much of the control response was suppressed.

Where two headings read alike, the source gives them in different places.

The assay relates to RSV strain A2. As to the kind of experiment: RSV antiviral cytoprotection assay in Hep2 cells (RSV-induced cytopathic effect, Cell TiterGlo). It counts as cell-based, Respiratory Syncytial Virus (RSV). Particulars: for inhibition at 0.5 µM: human respiratory syncytial virus. The protocol: Antiviral activity against RSV was determined using an in vitro cytoprotection assay in Hep2 cells. […] The method used was similar to methods previously described in published literature (Chapman et al., Antimicrob Agents Chemother. 2007, 51(9):3346-53.)
Hep2 cells were obtained from ATCC (Manassas, VI) and maintained in MEM media supplemented with 10% fetal bovine serum and penicillin/streptomycin. Cells were passaged twice a week and kept at subconfluent stage. Commercial stock of RSV strain A2 (Advanced Biotechnologies, Columbia, Md.) was titered before compound testing to determine the appropriate dilution of the virus stock that generated desirable cytopathic effect in Hep2 cells.
For antiviral tests, Hep2 cells were seeded into 96-well plates 24 hours before the assay at a density of 3,000 cells/well. On a separate 96 well plate, compounds to be tested were serially diluted in cell culture media. Eight concentrations in 3-fold serial dilution increments were prepared for each tested compound and 100 uL/well of each dilution was transferred in duplicate onto plates with seeded Hep2 cells. Subsequently, appropriate dilution of virus stock previously determined by titration was prepared in cell culture media and 100 uL/well was added to test plates containing cells and serially diluted compounds. Each plate included three wells of infected untreated cells and three wells of uninfected cells that served as 0% and 100% virus inhibition control, respectively. Following the infection with RSV, testing plates were incubated for 4 days in a tissue culture incubator. After the incubation, RSV-induced cytopathic effect was determined using a Cell TiterGlo reagent (Promega, Madison, Wis.) followed by a luminescence read-out. The percentage inhibition was calculated for each tested concentration relative to the 0% and 100% inhibition controls and the EC50 value for each compound was determined by non-linear regression as a concentration inhibiting the RSV-induced cytopathic effect by 50%. Ribavirin (purchased from Sigma, St. Louis, Mo.) was used as a positive control for antiviral activity.
Compounds were also tested for antiviral activity against RSV in Hep2 cells using a 384 well format. Compounds were diluted in DMSO using a 10-step serial dilution in 3-fold increments via automation in 4 adjacent replicates each. Eight compounds were tested per dilution plate. 0.4 uL of diluted compounds were then stamped via Biomek into 384-well plates (Nunc 142761 or 164730 w/lid 264616) containing 20 μL of media (Mediatech Inc. MEM supplemented with Glutamine, 10% FBS and Pen/Strep). DMSO and a suitable positive control compound, such as 80 μM GS-329467 or 10 μM 427346 was used for the 100% and 0% cell killing controls, respectively.
Hep2 cells (1.0×10^5 cells/ml) were prepared as above in batch to at least 40 mls excess of the number of sample plates (8 mls cell mix per plate) and infected with vendor supplied (ABI) RSV strain A2 to arrive at an MOI of 1:1000 (virus:cell #) or 1:3000 (vol virus: cell vol). Immediately after addition of virus, the RSV infected Hep2 cell suspension was added to each stamped 384-well plate at 20 μl per well using a uFlow dispenser, giving a final volume of 40 μL/well, each with 2000 infected cells. The plates were then incubated for 5 days at 37° C. and 5% CO2. Following incubation, the plates were equilibrated to room temperature in a biosafety cabinet hood for 1.5 hrs and 40 μL of Cell-Titer Glo viability reagent (Promega) was added to each well via uFlow. Following a10-20 minute incubation, the plates were read using an EnVision or Victor Luminescence plate reader (Perkin-Elmer). The data was then uploaded and analyzed on the Bioinformatics portal under the RSV Cell Infectivity and 8-plate EC50-Hep2-384 or 8-plate EC50-Hep2-Envision protocols. […]

The mark [1] stands for this setting: HEp-2, 0.5 μM compound, RSV A2-infected Hep2 cells, % inhibition calculated from 4-parameter dose response curve, normalized to 0% and 100%, read-out: Percent inhibition at 0.5 μM.

For `Cc1ccc(NS(C)(=O)=O)c(C(=O)N2CCCC[C@H]2c2cc3nc(N4C[C@@H](C#N)[C@@H](O)C4)c(C)cn3n2)c1` [Compound 200], under “HEp-2, read-out: Percent inhibition at 0.5 μM”, the inhibition at 0.5 µM was 100%.
As for `Cc1cn2nc([C@@H]3CCCCN3C(=O)c3cccc(F)c3C(F)(F)F)cc2nc1N1CC[C@H](N)C1` [Compound 44], the inhibition at 0.5 µM under setting [1] was 100%.
With `CN[C@@H]1CCN(c2nc3cc([C@@H]4CCCCN4C(=O)c4cc(Cl)ccc4NS(C)(=O)=O)nn3cc2C)C1` [Compound 10], the inhibition at 0.5 µM under setting [1] is 95%.
For the compound `Cc1cn2nc([C@@H]3CCCCN3C(=O)c3c(Cl)nc4ccccn34)cc2nc1N1C[C@@H](C#N)[C@@H](O)C1` [Compound 136], under setting [1], the inhibition at 0.5 µM is 83%.
Consider `Cc1cn2nc([C@@H]3CCCCN3C(=O)c3cccc(F)c3C)cc2nc1N1CC[C@H](N)C1` [Compound 25], for which the inhibition at 0.5 µM under setting [1] was 100%.
In the case of `Cc1cn2nc([C@@H]3CCCCN3C(=O)c3cc4c(OC(F)F)cccc4[nH]3)cc2nc1N1CC[C@H](N)C1` [Compound 57], the inhibition at 0.5 µM under setting [1] is 13%.
Take `COc1cc(C)ccc1C(=O)N1CCCC[C@H]1c1cc2nc(N3C[C@@H](C#N)[C@@H](O)C3)c(C)cn2n1` [Compound 173]: the inhibition at 0.5 µM under setting [1] was 98%.
For the compound `Cc1cn2nc([C@@H]3CCCCN3C(=O)c3cc(Cl)ccc3C(F)(F)F)cc2nc1N1CC[C@H](N)C1` [Compound 106], under setting [1], the inhibition at 0.5 µM was 100%.
As for `Cc1cn2nc([C@@H]3CCCCN3C(=O)c3cc(Cl)ccc3NS(C)(=O)=O)cc2nc1NCC1(N)CC1` [Compound 2], the inhibition at 0.5 µM under setting [1] is 100%.
For the compound `Cc1cn2nc([C@@H]3CCCCN3C(=O)c3ccc4ccccc4n3)cc2nc1N1CC[C@H](N)C1` [Compound 96], the inhibition at 0.5 µM under setting [1] is 65%.
In the case of `Cc1cn2nc([C@@H]3CCCCN3C(=O)c3cc(Cl)ccc3NS(C)(=O)=O)cc2nc1N1C[C@@H](C#N)[C@@H](OC(=O)CN)C1` [Compound 206], the inhibition at 0.5 µM under setting [1] is 100%.
The same measure, in the same setting: as for `Cc1cn2nc([C@@H]3CCCCN3C(=O)c3cccc4c3CCCC4)cc2nc1N1CC[C@H](N)C1` [Compound 31], the figure is 100%; as for `Cc1cn2nc([C@@H]3CCCCN3C(=O)c3cc(F)ccc3OC(F)(F)F)cc2nc1N1C[C@@H](C#N)[C@@H](O)C1` [Compound 122], 100%; as for `Cc1cn2nc([C@@H]3CCCCN3C(=O)c3ccc(F)cc3F)cc2nc1N1C[C@@H](C#N)[C@@H](O)C1` [Compound 150], 99%.
Same read-out and setting: as for `Cc1cn2nc([C@@H]3CCCCN3C(=O)c3cccc4c3OCC(=O)N4)cc2nc1N1CC[C@H](N)C1` [Compound 65], the figure is 97%.
Consider `Cc1cn2nc([C@@H]3CCCCN3C(=O)c3cccc4ccnn34)cc2nc1N1C[C@@H](C#N)[C@@H](O)C1` [Compound 135], for which the inhibition at 0.5 µM under setting [1] was 100%.
With `Cc1cn2nc([C@@H]3CCCCN3C(=O)c3cccc4c3ccn4C)cc2nc1N1C[C@@H](C#N)[C@@H](O)C1` [Compound 185], the inhibition at 0.5 µM under setting [1] was 100%.
Take `Cc1cn2nc([C@@H]3CCCCN3C(=O)c3ccc(Cl)c(Cl)c3)cc2nc1N1C[C@@H](C#N)[C@@H](O)C1` [Compound 177]: the inhibition at 0.5 µM under setting [1] is 99%.
As to `Cc1cn2nc([C@@H]3CCCCN3C(=O)c3cc(Cl)ccc3NS(C)(=O)=O)cc2nc1N1CCN[C@@H](COCc2ccccc2)C1` [Compound 13], the inhibition at 0.5 µM under setting [1] was 82%.
The same measure, in the same setting: as for `Cc1cc(F)c(F)cc1C(=O)N1CCCC[C@H]1c1cc2nc(N3CC[C@H](N)C3)c(C)cn2n1` [Compound 75], the figure is 100%.
As for `Cc1cn2nc([C@@H]3CCCCN3C(=O)c3cn4ncccc4n3)cc2nc1N1CC[C@H](N)C1` [Compound 101], under setting [1], the inhibition at 0.5 µM was 16%.
For `COc1cc2c(cc1C(=O)N1CCCC[C@H]1c1cc3nc(N4CC[C@H](N)C4)c(C)cn3n1)CCC2` [Compound 51], the inhibition at 0.5 µM under setting [1] is 100%.
Turning to `Cc1cccnc1C(=O)N1CCCC[C@H]1c1cc2nc(N3C[C@@H](C#N)[C@@H](O)C3)c(C)cn2n1` [Compound 179], the “Percent inhibition at 0.5 μM” value (0.5 μM compound, RSV A2-infected Hep2 cells, % inhibition calculated from 4-parameter dose response curve, normalized to 0% and 100%, 0.5 µM) is listed as 93%.
As to `Cc1cn2nc([C@@H]3CCCCN3C(=O)c3cc(Cl)ccc3NS(C)(=O)=O)cc2nc1N1C[C@@H](C#N)[C@@H](OC(=O)CCC(=O)NCCN2CCOCC2)C1` [Compound 209], under setting [1], the inhibition at 0.5 µM was 100%.
In the case of `Cc1cn2nc([C@@H]3CCCCN3C(=O)c3nn(C)c4ccccc34)cc2nc1N1C[C@@H](C#N)[C@@H](O)C1` [Compound 187], the inhibition at 0.5 µM under setting [1] was 100%.
On the same count and under the same terms, then `Cc1cn2nc([C@@H]3CCCCN3C(=O)c3c(F)cccc3F)cc2nc1N1CC[C@H](N)C1` [Compound 79], with 100%; and `Cc1cn2nc([C@@H]3CCCCN3C(=O)c3cc(Cl)ccc3NS(C)(=O)=O)cc2nc1N1CCN[C@H](Cc2ccccc2)C1` [Compound 17], with 70%; and `Cc1cn2nc([C@@H]3CCCCN3C(=O)c3cc(Cl)ccc3NS(C)(=O)=O)cc2nc1N1C[C@@H](C#N)[C@@H](OC(=O)[C@H]2CCCN2)C1` [Compound 205], with 100%.
The same measure, in the same setting: then `Cc1cn2nc([C@@H]3CCCCN3C(=O)c3cc(Br)ccc3NS(C)(=O)=O)cc2nc1N1C[C@@H](C#N)[C@@H](O)C1` [Compound 199], with 100%; and `Cc1cn2nc([C@@H]3CCCCN3C(=O)c3ccc4cccc(F)c4n3)cc2nc1N1CC[C@H](N)C1` [Compound 52], with 71%; and `Cc1cn2nc([C@@H]3CCCCN3C(=O)c3cc(Cl)ccc3OC(C)C)cc2nc1N1CC[C@H](N)C1` [Compound 63], with 100%.
Take `Cc1cn2nc([C@@H]3CCCCN3C(=O)c3cc(F)ccc3Cl)cc2nc1N1C[C@@H](C#N)[C@@H](O)C1` [Compound 186]: the inhibition at 0.5 µM under setting [1] was 100%.
For the compound `Cc1cn2nc([C@@H]3CCCCN3C(=O)c3cccc(C(F)(F)F)n3)cc2nc1N1C[C@@H](C#N)[C@@H](O)C1` [Compound 148], the inhibition at 0.5 µM under setting [1] was 77%.
On the same count and under the same terms, as for `Cc1ccc(C(F)(F)F)c(C(=O)N2CCCC[C@H]2c2cc3nc(N4C[C@@H](C#N)[C@@H](O)C4)c(C)cn3n2)c1` [Compound 120], the figure is 100%; as for `Cc1cc(F)ccc1C(=O)N1CCCC[C@H]1c1cc2nc(N3C[C@@H](C#N)[C@@H](O)C3)c(C)cn2n1` [Compound 155], 100%; as for `Cc1cn2nc([C@@H]3CCCCN3C(=O)c3cccc4c3CCCC4)cc2nc1N1C[C@@H](C#N)[C@@H](O)C1` [Compound 162], 100%.
Consider `Cc1cn2nc([C@@H]3CCCCN3C(=O)c3cc(F)cc4c3OCOC4)cc2nc1N1CC[C@H](N)C1` [Compound 48], for which the inhibition at 0.5 µM under setting [1] is 100%.
As to `Cc1cc(C)n2c(C(=O)N3CCCC[C@H]3c3cc4nc(N5CC[C@H](N)C5)c(C)cn4n3)nnc2n1` [Compound 55], the inhibition at 0.5 µM under setting [1] is 5%.
`Cc1cn2nc([C@@H]3CCCCN3C(=O)c3cccc4cn[nH]c34)cc2nc1N1CC[C@H](N)C1` [Compound 38]: the inhibition at 0.5 µM under setting [1] is 100%.
The same measure, in the same setting: as for `Cc1cn2nc([C@@H]3CCCCN3C(=O)c3ccccc3-c3ccccc3)cc2nc1N1C[C@@H](C#N)[C@@H](O)C1` [Compound 180], the figure is 94%; as for `Cc1cn2nc([C@@H]3CCCCN3C(=O)c3cccc4c3CCCN4)cc2nc1N1CC[C@H](N)C1` [Compound 60], 100%.
Same read-out and setting: as for `Cc1cn2nc([C@@H]3CCCCN3C(=O)c3cccc4[nH]cnc34)cc2nc1N1CC[C@H](N)C1` [Compound 43], the figure is 88%; as for `Cc1cn2nc([C@@H]3CCCCN3C(=O)c3cccc4cc[nH]c34)cc2nc1N1C[C@@H](C#N)[C@@H](O)C1` [Compound 151], 100%.

These data come from patent US8946238B2, “Pyrazolo[1,5-A]pyrimidines as antiviral agents” (Gilead Sciences, Inc., priority 2011, dated 2015).
